{"source": "patent US12662460B2", "about": "“Compositions for use for the inhibition of dihydroorotate dehydrogenase” (OHIO STATE INNOVATION FOUNDATION, priority 2019, dated 2026)", "key": {"[1]": {"biological_target": "T1, recombinant human DHODH (Homo sapiens, UniProt Q02127)", "T1 construct": "made in house", "T1 sequence (Q02127 whole entry)": "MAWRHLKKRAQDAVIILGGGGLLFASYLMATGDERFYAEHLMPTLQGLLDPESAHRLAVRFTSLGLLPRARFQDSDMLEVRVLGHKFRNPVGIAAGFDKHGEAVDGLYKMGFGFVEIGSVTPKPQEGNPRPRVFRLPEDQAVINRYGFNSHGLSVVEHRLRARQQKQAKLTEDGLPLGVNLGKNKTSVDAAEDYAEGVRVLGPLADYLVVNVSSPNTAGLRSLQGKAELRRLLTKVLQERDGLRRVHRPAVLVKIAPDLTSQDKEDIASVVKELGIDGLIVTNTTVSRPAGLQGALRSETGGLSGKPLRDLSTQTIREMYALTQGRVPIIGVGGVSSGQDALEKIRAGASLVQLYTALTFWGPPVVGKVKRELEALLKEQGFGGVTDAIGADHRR", "test": "DHODH enzymatic assay (DCIP reduction)", "type": "biochemical", "conditions": "recombinant human enzyme, 25° C.; read-out: h-DHODH IC50", "description": "DHODH Enzymatic Assay: DHODH activity was determined at 25° C. following the reduction of 2,6-dichloroindophenol sodium salt (DCIP) at 600 nm (ε=18 800 M^−1 cm^−1) on a spectrophotometer. The reaction medium used contained 50 mM Tris-HCl, pH 8.0, 0.1% Triton X-100, 0.1 mM LDHO, 0.025 mM CoQ1, and 0.06 mM DCIP. The reaction was started by addition of the enzyme. The inhibitory potency of the compounds was evaluated by measuring the initial velocity of the reaction either in the absence or in the presence of the compounds at the indicated concentrations. The DHODH enzyme used was the recombinant human enzyme prepared as previously described (Hëlène Munier-Lehmann, et al., J. Med. Chem. 2015, 58:860-877)."}, "[2]": {"test_system": "OCI-AML3", "test": "MTS assay for cell growth/viability, OCI-AML3", "type": "cell-based", "conditions": "Homo sapiens, OCI-AML-3, 96 hours", "description": "(§1) MTS assay for cell growth/viability: Mitochondrial activity was measured to determine cell proliferation using an MTS assay ([…]). Metabolically active cells convert MTS tetrazolium salt into a purple formazan product that is soluble in tissue culture medium. The amount of formazan measured at 490 nm absorbance is proportional to the number of proliferating cells. MTS assays in AML cell lines were carried out with 20K cells plated per well in 96-well plates with Cpd3 or brequinar in a dose series ranging from 0.0001 to 10 μM. Triplicate wells were set up for each condition. At 96 hours, the MTS reagent was added and after approximately 4 hours the plates were read in a spectrophotometer.\n(§2) Biological Activity. Cell proliferation assays were carried out using the MTS assay described herein using two AML cell lines (i.e., MOLM13 and OCI-AML3) with varied genetic backgrounds. The assays were carried out in a blinded fashion."}, "[3]": {"test_system": "MOLM13", "test": "MTS assay for cell growth/viability, MOLM13", "type": "cell-based", "conditions": "Homo sapiens, MOLM-13, 96 hours", "description": "as §1, §2"}}, "data": [{"smiles": "CCOc1ccc(-c2ccc(-c3cc(C(=O)O)c4cc(F)ccc4n3)cn2)cc1", "note": "[Cpd1, 2-(6-(4-ethoxyphenyl)pyridin-3-yl)-6-fluoroquinoline-4-carboxylic acid]", "values": [{"measurement": "IC50", "setting": "[1]", "result": 628, "unit": "nM"}, {"measurement": "IC50", "setting": "[2]", "result": 4320, "unit": "nM"}, {"measurement": "IC50", "setting": "[3]", "result": 5350, "unit": "nM"}]}, {"smiles": "CCOc1ccc(-c2ccc(-c3cc(C(=O)O)c4cc(F)ccc4n3)nc2)cc1", "note": "[Cpd2, 2-(5-(4-ethoxyphenyl)pyridin-2-yl)-6-fluoroquinoline-4-carboxylic acid]", "values": [{"measurement": "IC50", "setting": "[1]", "result": 317, "unit": "nM"}, {"measurement": "IC50", "setting": "[2]", "result": 709, "unit": "nM"}, {"measurement": "IC50", "setting": "[3]", "result": 571, "unit": "nM"}]}, {"smiles": "CCOc1ccc(-c2cnc(-c3cc(C(=O)O)c4cc(F)ccc4n3)nc2)cc1", "note": "[Cpd3, 2-(5-(4-ethoxyphenyl)pyrimidin-2-yl)-6-fluoroquinoline-4-carboxylic acid]", "values": [{"measurement": "IC50", "setting": "[2]", "result": 3640, "unit": "nM"}]}, {"smiles": "CCOc1ccc(-c2cnc(-c3cc(C(=O)O)c4cc(F)ccc4n3)cn2)cc1", "note": "[Cpd4, 2-(5-(4-ethoxyphenyl)pyrazin-2-yl)-6-fluoroquinoline-4-carboxylic acid]", "values": [{"measurement": "IC50", "setting": "[1]", "result": 500, "unit": "nM"}, {"measurement": "IC50", "setting": "[2]", "result": 2100, "unit": "nM"}]}, {"smiles": "CCOc1ccc(-c2ccc(-c3cc(C(=O)O)c4cc(F)ccc4n3)nn2)cc1", "note": "[Cpd5, 2-(6-(4-ethoxyphenyl)pyridazin-3-yl)-6-fluoroquinoline-4-carboxylic acid]", "values": [{"measurement": "IC50", "setting": "[1]", "result": 4750, "unit": "nM"}, {"measurement": "IC50", "setting": "[2]", "result": "> 10000", "unit": "nM"}]}, {"smiles": "CCOc1cccc(-c2cnc(-c3cc(C(=O)O)c4cc(F)ccc4n3)nc2)c1", "note": "[Cpd6, 2-(5-(3-ethoxyphenyl)pyrimidin-2-yl)-6-fluoroquinoline-4-carboxylic acid]", "values": [{"measurement": "IC50", "setting": "[1]", "result": 1820, "unit": "nM"}, {"measurement": "IC50", "setting": "[2]", "result": "> 10000", "unit": "nM"}]}, {"smiles": "CCOc1cccc(-c2ccc(-c3cc(C(=O)O)c4cc(F)ccc4n3)nn2)c1", "note": "[Cpd7, 2-(6-(3-ethoxyphenyl)pyridazin-3-yl)-6-fluoroquinoline-4-carboxylic acid]", "values": [{"measurement": "IC50", "setting": "[1]", "result": 605, "unit": "nM"}, {"measurement": "IC50", "setting": "[2]", "result": "> 10000", "unit": "nM"}]}]}
